The values below come from US20160298129A1, “ALS INHIBITOR HERBICIDE TOLERANT MUTANT PLANTS” (BAYER CROPSCIENCE NV, priority 2013, published 2016).

Usually IC50 stands for the midpoint of a concentration-inhibition curve.

One assay deals with AHAS P197S (Arabidopsis thaliana, UniProt P17597, E575Q/P197S). In kind it is biochemical. The protocol: (§1) Bacteria are grown at 37° C. in LB-medium containing 100 mg/l carbenicillin and 25 mg/l canamycin, induced with 1 mM isopropyl-β-D-thiogalactopyranoside at an OD600 of 0.6, cultivated for 16 hours at 18° C. and harvested by, e.g., centrifugation. Bacterial pellets are resuspended in 100 mM sodium phosphate buffer pH 7.0 containing 0.1 mM thiamine-pyrophosphate, 1 mM MgCl2, and 1 μM FAD at a concentration of 1 gram wet weight per 25 ml of buffer and disrupted by, e.g., sonification. The crude protein extract obtained after centrifugation is used for ALS activity measurements.
(§2) ALS protein can be extracted from leaves or tissue cultures, such as B. napus or B. juncea leaves, or B. napus or B. juncea tissue cultures as described by Ray (Plant Physiol, 1984, 75:827-831). An ALS assays can be carried out in 96-well microtiter plates using a modification of the procedure described by Ray (1984): The reaction mixture contains 20 mM potassium phosphate buffer pH 7.0, 20 mM sodium pyruvate, 0.45 mM thiamine-pyrophosphate, 0.45 mM MgCl2, 9 μM FAD. ALS enzyme and various concentrations of ALS inhibitors can be mixed in a final volume of 90 μl Assays can be initiated by adding enzyme and the assays can be terminated after 75 min incubation at 30° C. by the addition of 40 μl 0.5 M H2SO4.

The next assay deals with AHAS W574L (Arabidopsis thaliana, UniProt P17597, E575Q/W574L). In kind it is biochemical. The protocol: as §1, §2
Assay [1] concerns oilseed rape homozygous for HETO139 and HETO134 (139-134). The assay is described as follows: Field herbicide tolerance, visible phytotoxicity (ALS I W574L, ALS III P197S-D376E). In kind it is in vivo, Brassica napus. The settings on record: gai/ha: imazamox 40, bispyribac-sodium 50, propoxycarbazone-sodium 70, mesosulfuron-methyl 60, pyroxsulam 12.5 + cloquintocet-mexyl 37.5, each + rapeseed oil methylated 366.5. The text has this:
(§3) Seeds of spring oilseed rape homozygous for HETO139 and HETO134 were sown in a field according to typical practical agricultural methods together with seeds homozygous for HETO134 and HETO133 (comprising a W574L mutation on ALS III, which were obtained in the same way as HETO134), and with seeds homozygous for HETO134 and HETO132 (comprising a P197S and a W574L mutation on ALS III, which were obtained in essentially the same way as HETO139). Several ALS inhibitor herbicides were applied to the oilseed rape plants by using specific spray equipment for small plot applications.

The target of the next assay is AHAS P197S-D376E (Arabidopsis thaliana, UniProt P17597, D376E/E575Q/P197S). As to the kind of experiment: biochemical. The settings on record: for Resistance Factor / pI50: AHAS P197S-D376E. The protocol:
as §1, §2

A further assay concerns the target AHAS P197S-D376E-W574L (Arabidopsis thaliana, UniProt P17597, D376E/E575Q/P197S/W574L). As to the kind of experiment: biochemical. The conditions noted are these: for Resistance Factor / pI50: AHAS P197S-D376E-W574L. How it is done:
as §1, §2

The target of assay [2] is AHAS WT (Arabidopsis thaliana, UniProt P17597, E575Q). The assay is described as follows: biochemical. The settings on record: AHAS WT. How it is done:
as §1, §2

Another assay concerns the target AHAS D376E-W574L (Arabidopsis thaliana, UniProt P17597, D376E/E575Q/W574L). The assay is described as follows: biochemical. The settings on record: for Resistance Factor / pI50: AHAS D376E-W574L. The protocol: as §1, §2
The next assay has as its target AHAS D376E (Arabidopsis thaliana, UniProt P17597, D376E/E575Q). The assay is described as follows: biochemical. The conditions noted are these: for Resistance Factor / pI50: AHAS D376E. How it is done: as §1, §2
In the next assay the target is AHAS P197S-W574L (Arabidopsis thaliana, UniProt P17597, E575Q/P197S/W574L). The assay is described as follows: biochemical. The conditions noted are these: for Resistance Factor / pI50: AHAS P197S-W574L. How it is done:
as §1, §2

Assay [3] concerns oilseed rape homozygous for HETO132 and HETO134 (132-134). As to the kind of experiment: Field herbicide tolerance, visible phytotoxicity (ALS I W574L, ALS III P197S-W574L). The class given is in vivo, Brassica napus. The conditions noted are these: gai/ha: imazamox 40, bispyribac-sodium 50, propoxycarbazone-sodium 70, mesosulfuron-methyl 60, pyroxsulam 12.5 + cloquintocet-mexyl 37.5, each + rapeseed oil methylated 366.5.
From the text: as §3

Assay [4] concerns oilseed rape homozygous for HETO133 and HETO134 (133-134). As to the kind of experiment: Field herbicide tolerance, visible phytotoxicity (ALS I W574L, ALS III W574L). The settings on record: gai/ha: imazamox 40, bispyribac-sodium 50, propoxycarbazone-sodium 70, mesosulfuron-methyl 60, pyroxsulam 12.5 + cloquintocet-mexyl 37.5, each + rapeseed oil methylated 366.5. The class given is in vivo, Brassica napus.
From the text: as §3

In assay [5] the test system is wild-type (WT) oilseed rape. As to the kind of experiment: Field herbicide tolerance, visible phytotoxicity. In kind it is in vivo, Brassica napus. The settings on record: gai/ha: imazamox 40, bispyribac-sodium 50, propoxycarbazone-sodium 70, mesosulfuron-methyl 60, pyroxsulam 12.5 + cloquintocet-mexyl 37.5, each + rapeseed oil methylated 366.5.
Assay [6] has as its target AHAS WT (Arabidopsis thaliana, UniProt P17597). The assay is described as follows: biochemical. How it is done: as §1, §2
Assay [7] concerns WT tissues (hypocotyl derived callus). The assay is described as follows: Callus culture on Foramsulfuron selection medium. In kind it is cell-based, Brassica napus. The settings on record: 250 nM in M-338 [H76] medium. How it is done: Five day old seedlings were used for the preparation of hypocotyl segments 7-10 mm in length. Hypocotyl segments were transferred to 14 cm Petri plates containing 75 ml of M-338 [H76] callus induction medium (25 explants/plate). M-338 [H76] medium is MS salts and vitamins (Murashige and Skoog, 1962), 20 g/l sucrose, 0.5 g/l MES, 0.5 g/l adenine sulphate, 5 mg/l silver nitrate, 0.5 mg/l 2,4-D, 0.2 mg/l kinetin and solidified with 5.5 g/l agarose (pH 5.7). Dishes were sealed and cultured at 24° C. with standard light conditions (16 h/day). After 3 weeks, calli developing at the ends of the explants were transferred to fresh M-338 [H76] plates (25 calli/plate). Calli were subcultured to fresh medium every 3 weeks (larger calli cut into two pieces).
Hypocotyl derived callus (9 weeks old) was used for the selection of herbicide resistant mutants. […] Dishes were cultured at 24° C. with standard light conditions (16 h/day). After 3 weeks, the calli were divided into 2 pieces each and replated on M-338 [H76] medium containing 1.0 μM Foramsulfuron. Further increases in Foramsulfuron concentration (e.g. 1.5 μM, 2.0 μM, 2.5 μM, 3.0 μM or higher) were made each subculture until rapidly growing green (resistant) calli could clearly be identified from the brown non-resistant tissues.

AHAS D376E-W574L, sequence (P17597 56-670 D376E/W574L/E575Q): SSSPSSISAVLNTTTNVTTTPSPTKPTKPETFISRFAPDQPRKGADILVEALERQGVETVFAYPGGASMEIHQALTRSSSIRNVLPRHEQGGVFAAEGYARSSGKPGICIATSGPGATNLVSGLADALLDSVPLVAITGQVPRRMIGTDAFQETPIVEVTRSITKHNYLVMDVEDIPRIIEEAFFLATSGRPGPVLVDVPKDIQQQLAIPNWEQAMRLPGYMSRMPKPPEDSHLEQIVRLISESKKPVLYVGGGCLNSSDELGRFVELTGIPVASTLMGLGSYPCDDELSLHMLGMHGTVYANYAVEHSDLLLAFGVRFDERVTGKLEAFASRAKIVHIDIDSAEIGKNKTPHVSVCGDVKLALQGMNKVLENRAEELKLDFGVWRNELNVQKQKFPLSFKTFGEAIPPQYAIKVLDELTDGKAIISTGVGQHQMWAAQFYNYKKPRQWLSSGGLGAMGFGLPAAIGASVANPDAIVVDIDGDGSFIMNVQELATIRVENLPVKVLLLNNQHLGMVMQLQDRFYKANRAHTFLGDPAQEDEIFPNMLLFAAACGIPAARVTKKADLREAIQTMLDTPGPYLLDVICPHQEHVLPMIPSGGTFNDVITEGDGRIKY
AHAS P197S-D376E-W574L, sequence (P17597 56-670 P197S/D376E/W574L/E575Q): as the sequence (P17597 56-670 D376E/W574L/E575Q) above, with P142S counted along it
AHAS W574L, sequence (P17597 56-670 W574L/E575Q): as the sequence (P17597 56-670 D376E/W574L/E575Q) above, with E321D counted along it
AHAS P197S-W574L, sequence (P17597 56-670 P197S/W574L/E575Q): as the sequence (P17597 56-670 D376E/W574L/E575Q) above, with P142S, E321D counted along it
AHAS P197S-D376E, sequence (P17597 56-670 P197S/D376E/E575Q): as the sequence (P17597 56-670 D376E/W574L/E575Q) above, with P142S, L519W counted along it
AHAS P197S, sequence (P17597 56-670 P197S/E575Q): as the sequence (P17597 56-670 D376E/W574L/E575Q) above, with P142S, E321D, L519W counted along it
AHAS D376E, sequence (P17597 56-670 D376E/E575Q): as the sequence (P17597 56-670 D376E/W574L/E575Q) above, with L519W counted along it
AHAS WT (Arabidopsis thaliana, UniProt P17597, E575Q), sequence (P17597 56-670 E575Q): as the sequence (P17597 56-670 D376E/W574L/E575Q) above, with E321D, L519W counted along it
AHAS WT (Arabidopsis thaliana, UniProt P17597), sequence (P17597 56-670 E575Q): as the sequence (P17597 56-670 D376E/W574L/E575Q) above, with E321D, L519W counted along it

On to `COc1cc(OC)n2nc(NS(=O)(=O)c3c(C(F)(F)F)ccnc3OC)nc2n1` [Pyroxsulam, pyroxsulam], for which the “Resistance Factor” value on AHAS P197S is recorded as 261; at AHAS W574L it was more than 41368; at AHAS P197S-D376E, more than 41368; at AHAS P197S-D376E-W574L, more than 41368; at AHAS D376E-W574L it was more than 41368; on AHAS D376E, 656. Besides, the “Resistance Factor” value on AHAS P197S-W574L is reported as more than 41368. Besides, the pI50 is given as 6.2 at AHAS P197S; less than 4 on AHAS W574L; less than 4 at AHAS P197S-D376E; less than 4 on AHAS P197S-D376E-W574L; 8.6 on AHAS WT [2]; less than 4 at AHAS D376E-W574L. The pI50 at AHAS D376E is recorded as 5.8; on AHAS P197S-W574L it was less than 4. The Percentage phytotoxicity is 10.7% in assay [1] (9 DAA); 16% in [1] (16 DAA); 10.7% in assay [1] (24 DAA); 13.3% in assay [3] (9 DAA); 16% in assay [3] (16 DAA); 5% in [3] (24 DAA). The Percentage phytotoxicity turned out to be 13.3% in assay [4] (9 DAA); 17% in [4] (16 DAA); 15% in [4] (24 DAA); 76.7% in assay [5] (9 DAA); 98% in [5] (16 DAA); 98% in [5] (24 DAA).
Take `COc1cc(OC)nc(NC(=O)NS(=O)(=O)c2cc(NC=O)ccc2C(=O)N(C)C)n1` [Foramsulfuron, foramsulfuron]: the “Resistance Factor” value is reported as 12 on AHAS P197S; 5888 on AHAS W574L; more than 11748 at AHAS P197S-D376E; more than 11748 on AHAS P197S-D376E-W574L; more than 11748 at AHAS D376E-W574L; 3715 on AHAS D376E. In addition, on AHAS P197S-W574L, the “Resistance Factor” value is listed as more than 11748. For the same compound, the IC50 was 0.00794 µM on AHAS WT [6]; more than 100 µM at AHAS P197S-D376E; more than 100 µM at AHAS P197S-D376E-W574L; more than 100 µM against AHAS D376E-W574L; 31.6 µM against AHAS D376E; more than 100 µM against AHAS P197S-W574L. Further, the “inhibition of callus tissues” value in [7] was “clearly inhibitory”.
Regarding `COc1ncc(F)c2nc(S(=O)(=O)Nc3c(F)cccc3F)nn12` [Florasulam, florasulam], the “Resistance Factor” value at AHAS P197S is on record as 28; at AHAS W574L, 1738; on AHAS P197S-D376E it was 2754; on AHAS P197S-D376E-W574L, more than 6918; at AHAS D376E-W574L it was more than 6918; at AHAS D376E it was 55. Further, the “Resistance Factor” value at AHAS P197S-W574L is reported as more than 6918. Moreover, the pI50 at AHAS P197S is on record as 6.4; at AHAS W574L, 4.6; at AHAS P197S-D376E, 4.4; on AHAS P197S-D376E-W574L it was less than 4; on AHAS WT [2] it was 7.8; at AHAS D376E-W574L it was less than 4. In addition, the pI50 on AHAS D376E is 6.1; on AHAS P197S-W574L, less than 4.
